Experimental data from patent US5654178A, “Immunoassay for tetrachloroisophthalonitrile (chlorothalonil), its derivatives and breakdown products” (ISK Biosciences Corporation, priority 1995, dated 1997).
Converted amounts (≈) assume the structure as drawn. Read-outs that look alike come from different tables or passages of the source.

Tests used:
[1] = system: mAb 6F9; test: TCPN EIA, reactivity profile with monoclonal antibody; format: binding, mouse; conditions: for IC50: 10 min; for % Cross Reactivity: relative to TCPN
Method: (§1) The following immunoassay protocol was followed
(§2) 1. Microplates were prepared by binding screening conjugate Cl-O-AHT to the polystyrene surface.
(§3) 2. An appropriately diluted sample (200 μl) and the anti-TCPN antibody conjugated to horse radish peroxidase (50 μl) were added and incubated for 10 minutes.
(§4) 3. The wells were rinsed, and 200 μl of substrate, tetramethyl benzidine (TMB), was added to the wells.
(§5) 4. The plates were incubated for a further 10 minutes and 50 μl of stop solution (1.5% NaF) was added.
(§6) 5. The color reaction was read by measuring absorbance at 650 nm.
(§7) The cross reactivity of various TCPN derivatives and other benzene ring-based haptens were assessed using the above antibody preparations.

[2] = system: polyclonal anti-TCPN antibody; test: TCPN EIA, reactivity profile with polyclonal antibody; format: binding; conditions: for IC50: 10 min; for % Cross Reactivity: relative to TCPN
Method: as §1, §2, §3, §4, §5, §6, §7

[3] = Solubility; format: physicochemical
[4] = system: experimental animals; conditions: cited from earlier work
[5] = cited from earlier work
[6] = system: human skin; conditions: cited from earlier work
[7] = water or polar organic solvents

SMILES | IC50 [1] | % Cross Reactivity [1] | IC50 [2] | % Cross Reactivity [2] | other results
N#Cc1c(Cl)c(O)c(Cl)c(C#N)c1Cl [5-hydroxyTCPN, 5-hydroxy-2,4,6-trichloroisophthalonitrile] | 7.0 ppb | 31% | 800 ppb | 0.6% | –
N#Cc1c(Cl)c(Cl)c(Cl)c(Cl)c1Cl [PCBN, pentachlorobenzonitrile] | 30 ppb | 7.3% | 60 ppb | 8.3% | –
N#Cc1c(O)c(Cl)c(Cl)c(C#N)c1Cl [4-hydroxyTCPN, 4-hydroxy-2,5,6-trichloroisophthalonitrile] | 8.0 ppb | 28% | 1010 ppb | 0.5% | –
N#Cc1c(S)c(Cl)c(Cl)c(C#N)c1Cl [4-mercaptoTCPN, 4-mercapto-2,5,6-trichloroisophthalonitrile] | 4.8 ppb | 46% | 10 ppb | 60% | –
Clc1c(Cl)c(Cl)c(Cl)c(Cl)c1Cl [HCB, hexachlorobenzene] | > 10^4 ppb | < 0.01% | > 10^4 ppb | < 0.01% | –
CCc1cccc(C)c1N(C(=O)CCl)C(C)COC (stereo not drawn) [Metolachlor] | > 10^4 ppb | < 0.01% | > 10^4 ppb | < 0.01% | –
NC(=O)c1c(Cl)c(Cl)cc(C(=O)O)c1Cl [acid/amide TCPN, 3-carbamyl-2,4,5-trichlorobenzoic acid] | > 10^4 ppb | < 0.01% | > 10^4 ppb | < 0.01% | –
N#Cc1c(Cl)c(C#N)c(Cl)c(OC(=O)CC(=O)O)c1Cl [BK-489-36] | – | – | – | – | solubility ([3]; dmf, organic solvent or mixture, read-out: solubility): 4500 µg/mL (≈ 13.5 mM)
CCCCNC(=O)n1c(NC(=O)OC)nc2ccccc21 [Benomyl] | > 10^4 ppb | < 0.01% | > 10^4 ppb | < 0.01% | –
COC(=O)Nc1nc2ccccc2[nH]1 [MBC, carbendazim] | > 10^4 ppb | < 0.01% | > 10^4 ppb | < 0.01% | –
N#Cc1c(Cl)c(Cl)c(Cl)c(C(N)=O)c1Cl [amide TCPN, 2,4,5,6-tetrachloro-3-cyanobenzamide] | 800 ppb | 2.8% | 700 ppb | 0.7% | –
CCc1cccc(CC)c1N(COC)C(=O)CCl [Alachlor] | > 10^4 ppb | < 0.01% | > 10^4 ppb | < 0.01% | –
N#Cc1c(Cl)c(N)c(Cl)c(C#N)c1Cl [5-amino-TCPN, 5-amino-2,4,6-trichloroisophthalonitrile] | 1.9 ppb | 116% | 43 ppb | 12% | –
CCCN(CCC)c1c([N+](=O)[O-])cc(C(F)(F)F)cc1[N+](=O)[O-] [Trifluralin] | > 10^4 ppb | < 0.01% | > 10^4 ppb | < 0.01% | –
N#Cc1c(Cl)c(Cl)c(Cl)c(C#N)c1Cl [TCPN, tetrachloroisophthalonitrile] | 2.2 ppb | 100% | 5.0 ppb | 100% | sensitizing properties [4]: sensitizing properties; solubility in water [5]: practically insoluble in water; allergic reaction ([6]; exposed humans): stimulates an allergic reaction, leading to an IgE antibody response; contact dermatitis ([6]; production plant and field): associated with contact dermatitis; sensitizing properties ([6]; tested directly on human skin): sensitizing properties
CCNc1nc(Cl)nc(NC(C)C)n1 [Atrazine] | > 10^4 ppb | < 0.01% | > 10^4 ppb | < 0.01% | –
N#Cc1c(Cl)c(C#N)c(Cl)c(NC(=O)NCC(=O)O)c1Cl [BK-489-41] | – | – | – | – | solubility [3, 7]: high solubility
N#Cc1c(N)c(Cl)c(Cl)c(C#N)c1Cl [4-aminoTCPN, 4-amino-2,5,6-trichloroisophthalonitrile] | 2.4 ppb | 92% | 43 ppb | 12% | –
N#Cc1c(Cl)c(C#N)c(Cl)c(OC(=O)NCC(=O)O)c1Cl [BK-489-35] | – | – | – | – | solubility [3, 7]: extremely low solubility
